test system: Abutilon theophrasti; test: Weeding effect in post-emergence stage; type: in vivo; conditions: active ingredient 2000 g/ha, 3 weeks after application, fresh weight control rate
In short: (§1)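 Pot-grown weeds at the 2-3 leaf stage receive a tower spray of test compound at 2000, 1000, 500, 250 or 125 g/ha, formulated in acetone with Tween 80 and methyl oleate synergist. Fresh weight reduction is rated on an activity scale 3 weeks later.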

Row | SMILES | Weeding effect, activity level (growth control rate), Abutilon theophrasti
1 | Cn1nnnc1NC(=O)c1ccnc(-c2cc(C#N)ccn2)c1Cl [Compound 1-122] | 5 (Level 5: growth control rate is above 85%)
2 | CCC[S+]([O-])c1nccc(C(=O)Nc2nnnn2C)c1Cl (centres unmarked) [Compound 1-2070] | 5 (Level 5: growth control rate is above 85%)
3 | CSc1c(C(=O)Nc2nnnn2C)ccnc1-c1ccc(F)cc1 [Compound 1-203] | 5 (Level 5: growth control rate is above 85%)
4 | Cn1nnnc1NC(=O)c1ccnc(-c2ccnc(Cl)c2)c1Cl [Compound 1-151] | 5 (Level 5: growth control rate is above 85%)
5 | CN(C)c1c(C(=O)Nc2nnnn2C)ccnc1-c1ccc(F)cc1 [Compound 1-208] | 5 (Level 5: growth control rate is above 85%)
6 | Cc1cc(Cl)ncc1-c1nccc(C(=O)Nc2nnnn2C)c1Cl [Compound 1-138] | 5 (Level 5: growth control rate is above 85%)
7 | Cn1nnnc1NC(=O)c1ccnc(-c2ccc(F)nn2)c1Cl [Compound 1-154] | 5 (Level 5: growth control rate is above 85%)
8 | COc1ncc(-c2nccc(C(=O)Nc3nnnn3C)c2Cl)c(OC)n1 [Compound 1-162] | 5 (Level 5: growth control rate is above 85%)
9 | Cn1nnnc1NC(=O)c1ccnc(-c2cnoc2)c1Cl [Compound 1-193] | 5 (Level 5: growth control rate is above 85%)
10 | Cn1nnnc1NC(=O)c1ccnc(-c2ccc(C=O)s2)c1Cl [Compound 1-190] | 5 (Level 5: growth control rate is above 85%)
11 | Cn1nnnc1NC(=O)c1ccnc(-c2cscn2)c1Cl [Compound 1-228] | 5 (Level 5: growth control rate is above 85%)

test system: Amaranthus retroflexus L.; test: Weeding effect in post-emergence stage; type: in vivo; conditions: active ingredient 2000 g/ha, 3 weeks after application, fresh weight control rate
In short: as §1

Row | SMILES | Weeding effect, activity level (growth control rate), Amaranthus retroflexus L.
12 | Cn1nnnc1NC(=O)c1ccnc(-c2cc(C#N)ccn2)c1Cl [Compound 1-122] | 5 (Level 5: growth control rate is above 85%)
13 | CCC[S+]([O-])c1nccc(C(=O)Nc2nnnn2C)c1Cl (centres unmarked) [Compound 1-2070] | 5 (Level 5: growth control rate is above 85%)
14 | CSc1c(C(=O)Nc2nnnn2C)ccnc1-c1ccc(F)cc1 [Compound 1-203] | 5 (Level 5: growth control rate is above 85%)
15 | Cn1nnnc1NC(=O)c1ccnc(-c2ccnc(Cl)c2)c1Cl [Compound 1-151] | 5 (Level 5: growth control rate is above 85%)
16 | CN(C)c1c(C(=O)Nc2nnnn2C)ccnc1-c1ccc(F)cc1 [Compound 1-208] | 5 (Level 5: growth control rate is above 85%)
17 | Cc1cc(Cl)ncc1-c1nccc(C(=O)Nc2nnnn2C)c1Cl [Compound 1-138] | 5 (Level 5: growth control rate is above 85%)
18 | Cn1nnnc1NC(=O)c1ccnc(-c2ccc(F)nn2)c1Cl [Compound 1-154] | 5 (Level 5: growth control rate is above 85%)
19 | COc1ncc(-c2nccc(C(=O)Nc3nnnn3C)c2Cl)c(OC)n1 [Compound 1-162] | 5 (Level 5: growth control rate is above 85%)
20 | Cn1nnnc1NC(=O)c1ccnc(-c2cnoc2)c1Cl [Compound 1-193] | 5 (Level 5: growth control rate is above 85%)
21 | Cn1nnnc1NC(=O)c1ccnc(-c2ccc(C=O)s2)c1Cl [Compound 1-190] | 5 (Level 5: growth control rate is above 85%)
22 | Cn1nnnc1NC(=O)c1ccnc(-c2cscn2)c1Cl [Compound 1-228] | 5 (Level 5: growth control rate is above 85%)

test system: Chenopodium album; test: Weeding effect in post-emergence stage; type: in vivo; conditions: active ingredient 2000 g/ha, 3 weeks after application, fresh weight control rate
In short: as §1

Row | SMILES | Weeding effect, activity level (growth control rate), Chenopodium album
23 | Cn1nnnc1NC(=O)c1ccnc(-c2cc(C#N)ccn2)c1Cl [Compound 1-122] | 5 (Level 5: growth control rate is above 85%)
24 | CCC[S+]([O-])c1nccc(C(=O)Nc2nnnn2C)c1Cl (centres unmarked) [Compound 1-2070] | 5 (Level 5: growth control rate is above 85%)
25 | CSc1c(C(=O)Nc2nnnn2C)ccnc1-c1ccc(F)cc1 [Compound 1-203] | 5 (Level 5: growth control rate is above 85%)
26 | Cn1nnnc1NC(=O)c1ccnc(-c2ccnc(Cl)c2)c1Cl [Compound 1-151] | 5 (Level 5: growth control rate is above 85%)
27 | CN(C)c1c(C(=O)Nc2nnnn2C)ccnc1-c1ccc(F)cc1 [Compound 1-208] | 5 (Level 5: growth control rate is above 85%)
28 | Cc1cc(Cl)ncc1-c1nccc(C(=O)Nc2nnnn2C)c1Cl [Compound 1-138] | 5 (Level 5: growth control rate is above 85%)
29 | Cn1nnnc1NC(=O)c1ccnc(-c2ccc(F)nn2)c1Cl [Compound 1-154] | 5 (Level 5: growth control rate is above 85%)
30 | COc1ncc(-c2nccc(C(=O)Nc3nnnn3C)c2Cl)c(OC)n1 [Compound 1-162] | 5 (Level 5: growth control rate is above 85%)
31 | Cn1nnnc1NC(=O)c1ccnc(-c2cnoc2)c1Cl [Compound 1-193] | 5 (Level 5: growth control rate is above 85%)
32 | Cn1nnnc1NC(=O)c1ccnc(-c2ccc(C=O)s2)c1Cl [Compound 1-190] | 5 (Level 5: growth control rate is above 85%)
33 | Cn1nnnc1NC(=O)c1ccnc(-c2cscn2)c1Cl [Compound 1-228] | 5 (Level 5: growth control rate is above 85%)

test system: Descurainia sophia; test: Weeding effect in post-emergence stage; type: in vivo; conditions: active ingredient 2000 g/ha, 3 weeks after application, fresh weight control rate
In short: as §1

Row | SMILES | Weeding effect, activity level (growth control rate), Descurainia sophia
34 | Cn1nnnc1NC(=O)c1ccnc(-c2cc(C#N)ccn2)c1Cl [Compound 1-122] | 5 (Level 5: growth control rate is above 85%)
35 | CCC[S+]([O-])c1nccc(C(=O)Nc2nnnn2C)c1Cl (centres unmarked) [Compound 1-2070] | 5 (Level 5: growth control rate is above 85%)
36 | CSc1c(C(=O)Nc2nnnn2C)ccnc1-c1ccc(F)cc1 [Compound 1-203] | 5 (Level 5: growth control rate is above 85%)
37 | Cn1nnnc1NC(=O)c1ccnc(-c2ccnc(Cl)c2)c1Cl [Compound 1-151] | 5 (Level 5: growth control rate is above 85%)
38 | CN(C)c1c(C(=O)Nc2nnnn2C)ccnc1-c1ccc(F)cc1 [Compound 1-208] | 5 (Level 5: growth control rate is above 85%)
39 | Cc1cc(Cl)ncc1-c1nccc(C(=O)Nc2nnnn2C)c1Cl [Compound 1-138] | 5 (Level 5: growth control rate is above 85%)
40 | Cn1nnnc1NC(=O)c1ccnc(-c2ccc(F)nn2)c1Cl [Compound 1-154] | 5 (Level 5: growth control rate is above 85%)
41 | COc1ncc(-c2nccc(C(=O)Nc3nnnn3C)c2Cl)c(OC)n1 [Compound 1-162] | 5 (Level 5: growth control rate is above 85%)
42 | Cn1nnnc1NC(=O)c1ccnc(-c2cnoc2)c1Cl [Compound 1-193] | 5 (Level 5: growth control rate is above 85%)
43 | Cn1nnnc1NC(=O)c1ccnc(-c2ccc(C=O)s2)c1Cl [Compound 1-190] | 5 (Level 5: growth control rate is above 85%)
44 | Cn1nnnc1NC(=O)c1ccnc(-c2cscn2)c1Cl [Compound 1-228] | 5 (Level 5: growth control rate is above 85%)

Reference: patent US12497365B2, “4-pyridinyl formamide compound or derivative thereof, preparation method therefor, herbicidal composition and use thereof” (Qingdao Kingagroot Chemical Compound Co., Ltd., priority 2019, dated 2025)
